“Also recorded” adds a separate entry of the source.
What was measured:
MDA-MB-231 cells = experiment: MTT cell viability assay, MDA-MB-231; assay type: cell-based; conditions: Homo sapiens, 72 h treatment
Experimental: (§1) The antiproliferative activity of the synthesized compounds was evaluated by the 3-(4,5-dimethylthiazol-2-yl)-2,5-diphenyl tetrazolium bromide (MTT) cell viability assay. Two types of breast cancer cell lines—namely MCF-7, which has estrogen and progesterone receptors, and MDA-MB-231, which is triple negative—were used, in addition to a colon cancer cell line (HCT-116).
(§2) The target products 3a–o were evaluated for their antiproliferative activity using the MTT viability assay of the MCF-7, MDA-MB-231 and HCT-116 cell lines (in triplicate) on at least three independent occasions for the determination of the reported mean values.
(§3) The three human tumor cell lines MCF-7, MDA-MB-231 and HCT-116 were cultured in Dulbecco’s Modified Eagle’s Medium (DMEM) with 10% fetal bovine serum, 2 mM L-glutamine and 100 µg/mL penicillin/streptomycin. The cells were maintained at 37 °C in 5% CO2 in a humidified incubator. All of the cells were sub-cultured 3 times/week by trypsinization using TrypLE Express (1×).
(§4) In order to calculate the relative IC50 values, the antiproliferative effect of compounds 3a–o was tested in three cancer cell lines (MCF-7, MDA-MB-231, HCT-116) and normal epithelial embryonic kidney cells (HEK-293) using the MTT viability assay. The cells were seeded in 96-well plates at a density of 10 × 10^3 cells/mL, in a total volume of 200 µL per well. In total, 0.1% DMSO was used as a vehicle control. […] The culture medium was then removed, and the cells were washed with phosphate-buffered saline (PBS), and 100 µL MTT was added (for a final concentration of 5 mg/mL MTT). The cells were incubated for 4 h in darkness at 37 °C. Next, 200 µL DMSO was added to each well, and the cells were maintained at room temperature in darkness for 20 min. The absorbance was detected with a microplate reader at 570 nm. The results were expressed as a percentage of viability relative to the vehicle control (100%). The dose-response curves were plotted, and the IC50 values were obtained using Prism software (GraphPad Software, Inc., La Jolla, CA, USA). All of the experiments were repeated in three independent experiments.

zebrafish embryos = experiment: Zebrafish embryo mortality/toxicity; assay type: in vivo; conditions: maximum concentration tested 1 mM, versus DMSO control
Experimental: (§5) The zebrafish embryos were obtained by natural pairwise breeding, and were treated essentially as described previously.
(§6) The compounds were dissolved in dimethylsulfoxide (DMSO) in order to prepare a stock concentration of 10 mM. The embryos treated with 0.10% DMSO (v/v) served as the negative controls.
(§7) The fish were kept following the national and international guidelines for the care and use of laboratory animals. The fertilized eggs were obtained by the natural pairwise breeding of adult fish. The approval of the Ethics Committee for the use and care of laboratory animals was not needed, as zebrafish larvae less than 5 days post fertilization were used.
(§8) A stock solution of 50 mM was prepared by dissolving the compounds in dimethyl sulfoxide (DMSO). At least 30 fertilized eggs were sorted and placed in 60-mm sterile glass Petri dishes. A serial dilution of the compounds was prepared by adding the required amount of the compound directly into 5 mL water, and the zebrafish embryos were then exposed to serial dilutions (0.5 to 1000 µM) of each compound overnight. The number of dead and living embryos were counted after the overnight exposure.

[1] = Zebrafish embryo mortality/toxicity; assay type: in vivo; conditions: wild-type, in vivo; zebrafish embryos, overnight exposure, 0.5 to 1000 µM; mean of three biological replicates ± standard deviation
Experimental: as §5, §6, §7, §8

MCF-7 cells [2] = experiment: Cell cycle analysis by PI staining flow cytometry; assay type: cell-based, human; conditions: 2 µM, 48 h
Experimental: The mechanism underlying the growth-inhibitory effect of 3a was further examined. The effect of 3a on cell cycle events in MCF-7 cells, after incubation at 2 µM for 48 h, was analyzed by a DNA flow cytometry assay of propidium iodide (PI) staining (Figure 4A). Compound 3a induced a statistically significant arrest of MCF-7 cells in the G2/M stage (36.8%) compared to the untreated cell line (11.5%) (Figure 4B).
The MCF-7 cells were treated with compound 3a (2 µM) and incubated for 48 h. After trypsinization, the cells were collected and centrifuged at 800× g for 15 min. They were then fixed in ice-cold 70% ethanol overnight at −20 °C. The fixed cells were centrifuged at 800× g for 15 min and stained with 50 μg/mL PI, containing 50 μg/mL DNase-free RNase A, at 37 °C for 30 min. The DNA content of the cells (10,000 cells) was analyzed by flow cytometer at 488 nm, using a FACSCalibur flow cytometer (BD Biosciences, San Jose, CA, USA).
Figure 4 (A) Effect of compound 3a on the cell cycle and apoptosis in breast cancer MCF-7 cells. The cells were treated with either a vehicle (0.1% ethanol (v/v)) or 3a (2 µM) for 48 h. The cell cycle analysis was performed on histograms of gated counts per DNA area (FL2-A). (B) Quantitative analysis of 4N (G2/M), 2N (G0G1), >2N (S) and <2N (sub-G1). The DNA content was determined with CellQuest software. […]

MCF-7 cells [3] = experiment: MTT cell viability assay, MCF-7; assay type: cell-based, human; conditions: 72 h treatment
Experimental: as §1, §2, §3, §4

Question: Which results are given for `COC(=O)CNC(=O)CNc1nc(Nc2ccccc2)nc(N2CCOCC2)n1` [Compound 3a, Methyl (4-morpholino-6-(phenylamino)-1,3,5-triazin-2-yl) glycylglycinate]?
Answer: IC50 (MDA-MB-231 cells): 9.36 ± 1.15 µM; toxicity / mortality in zebrafish embryos (zebrafish embryos): did not show any toxicity; also recorded: same mortality ratio as the control; LC50 [1]: > 1000 µM; cells in the sub-G1 phase (MCF-7 cells [2]; control 3.7%): 17.3%; MCF-7 cells in the G2/M stage (MCF-7 cells [2]; untreated 11.5%): 36.8%; IC50 (MCF-7 cells [3]): 0.82 ± 0.37 µM; IC50 (MCF-7 cells [3]; Homo sapiens, MCF7, 72 h): < 1 µM
